Experimental findings from patent US8103455B2, “Method of assessing the proliferation or differentiation behaviour of a population of target cells in a biological system” (Medical Research Council, priority 2006, dated 2012) are described below.

Common to all, as to assay type: in vivo, mouse
Assay [1] deals with mitotic spindles of tail IFE. As to the kind of experiment: Analysis of mitotic spindle orientation in DAPI stained epidermal wholemounts. Particulars: ATRA treatment, topical (3 months per figure legend). Here is the method:
(§1) All trans retinoic acid (Sigma) in ethanol, propanediol 70:30 was applied topically to tail skin and shaved back skin (0.5 ml each) 5 days a week for 3 months at 0.33 mM or daily for 2 weeks at 1 mM.
(§2) Two protocols were used: (1) Mice were induced and after a three month interval treated with either 0.33 mM all trans retinoic acid (ATRA) or vehicle alone for a further 3 months. (2) Mice were treated with 1 mM all trans retinoic acid (ATRA) or vehicle alone for 2 weeks, beginning immediately after induction.

Assay [2] concerns epidermal progenitor cells (EPC) of tail epidermis. As to the kind of experiment: Clone size distribution of EYFP-labelled epidermal progenitor cell clones after topical retinoid treatment, fitted to the model. Here is the method:
All animal experiments were conducted as specified by Home Office Project License. The generation of AhcreERT and R26EYFP/EYFP mice has been described previously^15,16. […] Epidermal wholemounts were prepared as described^14. For analysis of back epidermis, 60 μm cryosections were used.
(§3) Clone size was determined by Z stack confocal imaging of at least 50 clones containing at least one basal cell in each mouse at each time point. […] The percentage of Ki67 positive cells was determined by imaging at least 1500 basal cells in multiple fields from at least 3 mice.
as §1, §2

Another assay concerns basal cells of tail IFE. As to the kind of experiment: Proliferation rate of basal cells by Ki67 staining. Conditions: ATRA treated mice, topical; controls 16.5+/-2.2%. Here is the method: as §3, §1, §2

For the compound `CC1=C(/C=C/C(C)=C/C=C/C(C)=C/C(=O)O)C(C)(C)CCC1` [ATRA, all trans retinoic acid], the “orientation of mitotic spindles” value in assay [1] is listed as “did not alter the orientation of mitotic spindles”. Further, in assay [2] (at two weeks, both protocols, unchanged from wildtype), the “AD (asymmetric division) rate from fit of model to two cell clone distribution” value worked out at 84%. The clone size result in assay [2] (both protocols: 0.33 mM for 3 months starting 3 months after induction, 1 mM for 2 weeks from induction, versus vehicle) is listed as “increase substantially”. The “EPC division rate, factor of increase” value in assay [2] (fit of model to two cell clone distribution at two weeks, vehicle factor 1.4) worked out at 22. The “proliferation rate assessed by Ki67 staining (mean+/-sem)” value in the assay on basal cells of tail IFE is recorded as 57.0+/−3.7%.
